In series [1] the test system is A. muciniphila (MDA-JAX AM001). The note with it: for mucin glycan utilization by A. muciniphila: physiological concentrations, varying pH, 48 hours of culture.
Experimental: The impact of DR-induced metabolic changes in the colonic lumen on A. muciniphila behavior was also studied using an in vitro mucin glycan consumption assay. A novel A. muciniphila (MDA-JAX AM001) strain was isolated from the feces of C57BL6 mice and introduced to liquid media supplemented with PGM, and the effects of varying pH either alone or combined with the presence of physiological concentrations of acetate, propionate, and butyrate were evaluated.
The test system of series [2] is Akkermansia. Description: Total body radiotherapy (9 Gy RT) mice treated with azithromycin or propionate. The format is in vivo. The note with it: for colonic mucus layer thickness: 9 Gy total body RT; for colonic tissue levels of IL-1b, CCL2, CCL7, IL-22, CXCL1 and CXCL10 / ocular surface temperatures (hypothermia) / outgrowth of Akkermansia: day 6 after RT; for outgrowth of Akkermansia: 16S rRNA gene sequencing. The protocol: C57BL/6 mice were exposed to a single myeloablative dose of total body radiotherapy (9 Gy RT), and stool samples were evaluated 6 days later by 16S rRNA gene sequencing. […] Colonic tissue samples were cut cross-sectionally and mucus layer thickness was averaged across 8 equally-spaced circumferential sites (FIG. 7) to evaluate whether the dense colonic mucus layer, which normally separates bacteria-rich luminal contents from the colonic epithelium, was affected by irradiation in mice.
Additionally, ocular surface temperatures were non-invasively measured in mice using a published method (16) because in contrast to humans, mice are develop hypothermia in response to exposure to inflammatory ligands such as LPS (17) and in models of sepsis (18).
The degree of inflammation in colonic tissue was directed measured by quantifying levels of a panel of cytokines (FIG. 5C).

Series [3] deals with Akkermansia.
Series [4] has as its system A. muciniphila strain (MDA-JAX AM001). Description: Growth of A. muciniphila in BYEM10+ mucin medium (OD600 nm up to 48 hrs). The format is cell-based, Akkermansia muciniphila. The protocol: SCFAs were added in 10 and 20 mM final concentration to bacterial culture. Growth of the bacteria at 37° C. in BYEM10+ mucin medium was read at OD600 nm continuously up to 48 hrs. Control Akkermansia culture was grown in absence of compounds.
Using a high-throughput screening strategy analyzing ˜1800 compounds, various other natural compounds in addition to SCFAs were identified for their potential to delay and/or suppress growth of MDA-JAX AM001. […] Growth of the bacteria at 37° C. in BYEM10+ mucin medium was read at OD600 nm continuously up to 48 hrs. Control Akkermansia culture was grown in absence of compounds.
Several active ruminal metabolites were also tested for their ability to delay and/or suppress growth of MDA-JAX AM001. Compounds were selected based on initial testing of Akkermansia growth in medium containing 1× to 3× concentrated ruminal fluid, followed by analysis of metabolite content by MALDI-TOF mass-spectrometry. Ruminal metabolite compounds tested included Malic acid (2 mM and 5.6 mM), 3-Indole acetic acid (5.6 mM and 8.6 mM), Hydrocinnamic acid (2.66 mM and 3.99 mM), Methylmalonic acid (8.4 mM and 10.6 mM), Glucoranic acid (16.8 mM), Galacturonic acid (14 mM), and Bis-hydroxy methyl propionic acid (22 mM). These ruminal metabolite compounds have also been found in human stool, as analyzed by MALDI-TOF mass spectrometry. […] Growth of the bacteria at 37° C. in BYEM10+ mucin medium was read at OD600 nm continuously up to 48 hrs. Control Akkermansia culture was grown in absence of compounds.

For series [5], the system named is Akkermansia. Put plainly: Dietary restriction in mice with narrow-spectrum antibiotics in the drinking water. The format is in vivo. The note with it: antibiotic in drinking water from 5 days prior to dietary restriction. From the text: Diet is a major determinant of intestinal microbiome composition, and the indirect impact of RT on microbiome composition due to a reduction in intake of food in mice was investigated. Mice were individually housed in metabolic cages following RT to quantify effects of RT on food and water intake. Within 2 days following RT, mice had reduced their oral intake to approximately 2 grams a day, or a 50% reduction (FIG. 3A). To evaluate whether dietary restriction (DR) could impact intestinal microbiome composition and the colonic mucus layer, normal, un-irradiated mice were limited 2 grams of chow per mouse per day for 7 days.
Because commercially-available mice lacking Akkermansia are not easy to find (12), narrow-spectrum antibiotics were used to evaluate the specific contribution of Akkermansia to mucus thinning during DR.

Series [6] is described as follows: Melphalan therapy in mice: intestinal microbiome and colonic mucus layer. The format is in vivo. The note with it: 6 days following melphalan 20 mg/kg, C57BL/6 mice. The text has this:
Myeloablative RT, previously a foundational pillar that made HCT possible, has been progressively replaced by chemotherapy, particularly alkylating agents (11). […] An expansion of Bacteroides was also seen, though this was not statistically significant after correction for multiple comparisons, and was accompanied by a loss of Muribaculaceae, similar to that following RT.

For series [7] the following is noted: human, in vivo.
Experimental: In this study, data from 295 patients with acute myeloid leukemia (AML) or myelodysplastic syndrome (MDS) who underwent allo-HSCT with tacrolimus and methotrexate as GVHD prophylaxis following conditioning therapy with fludarabine and 5 busulfan from 2011 to 2016 were retrospectively examined. The incidence of acute intestinal GVHD until day 100 after transplant was evaluated and compared were patients who received neither cefepime nor meropenem, those who received cefepime alone, those who received meropenem alone, and those who received both cefepime and meropenem during the period from days −10 to 30 relative to allo-HSCT infusion.
Retrospective study design. 295 patients with acute myeloid leukemia (AML) or myelodysplastic syndrome (MDS) underwent allogeneic hematopoietic stem cell transplantation (allo-HSCT) with fludarabine plus busulfan as conditioning therapy and tacrolimus and methotrexate as GVHD prophylaxis from 2011 and 2016 and were analyzed retrospectively. Patients were classified by antibiotic exposures, including those who received neither cefepime nor meropenem, those who received cefepime alone, those who received meropenem alone and those who received both cefepime and meropenem from day −10 to day 30 after allo-HSCT. Acute GVHD was diagnosed by clinical and/or pathological findings, and graded according to standard criteria (56).
Setting [8] is: acidified drinking water (pH3), one week dietary restriction.
[9] abbreviates: drinking water at neutral pH, dietary restriction.
The mark [10] stands for this setting: Brucine 2.5 and 5 mM, Methyl-β-D-galactopyranoside 14 mM, Resacetophenone 3.3 and 5 mM, Serotonin 4.7 and 7.1 mM.
Setting [11] is: Malic acid 2 and 5.6 mM, 3-Indole acetic acid 5.6 and 8.6 mM, Hydrocinnamic acid 2.66 and 3.99 mM, Methylmalonic acid 8.4 and 10.6 mM, Glucoranic acid 16.8 mM, Galacturonic acid 14 mM, Bis-hydroxy methyl propionic acid 22 mM.
The mark [12] stands for this setting: 10 mM and 20 mM, vs mucin-only control, 37° C.

Where two headings read alike, the source gives them in different places.

In the case of `CCC(=O)[O-].[Na+]` [propionate, sodium propionate], the “growth of A. muciniphila” value in series [1] (higher levels, OD 600) was “delays in growth”. For the same compound, in series [1], the “mucin glycan utilization by A. muciniphila” value (shortened to “mucin glycan utilization”) is listed as “inhibitory effects on mucin glycan utilization”. For the same compound, in the series on Akkermansia [2], the “colonic mucus layer thickness” value was “effective in preserving colonic mucus layer thickness”; the “colonic tissue levels of IL-1b, CCL2, CCL7, IL-22, CXCL1 and CXCL10” value is given as “prevented elevation of all of these cytokines, with the exception of CXCL1”; the “ocular surface temperatures (hypothermia)” value was “less depressed at day 6”; the “outgrowth of Akkermansia” value is listed as “not effective”. In addition, in the series with Akkermansia [3] (setting [8]), the “expansion of Akkermansia” value is “mitigated expansion of Akkermansia”, the “fecal / colonic luminal pH” value is “reduced fecal pH” and the “thinning of the colonic mucus layer” value is “prevented thinning of the mucus layer”. In addition, in the series with Akkermansia [3] (setting [9]), the “expansion of Akkermansia” value was “trended towards preventing Akkermansia expansion” and the “thinning of the colonic mucus layer” value was “sufficient to prevent mucus thinning”.

Turning to `CO[C@@H]1O[C@H](CO)[C@H](O)[C@H](O)[C@H]1O` [Methyl-β-D-galactopyranoside], the “growth of MDA-JAX AM001” value in series [4] (setting [10]) was “delay and suppress the growth of MDA-JAX AM001”.

With `CC(=O)[O-].[Na+]` [acetate, sodium acetate], the “mucin glycan utilization” value in series [1] is “negligible effects on A. muciniphila behavior”. For the same compound, in the series on Akkermansia [3] (setting [8]), the “expansion of Akkermansia” value is listed as “no such preventative effect”, the “fecal / colonic luminal pH” value was “lowering the pH in the colonic lumen” and the “thinning of the colonic mucus layer” value is “no such preventative effect”.

As for `O=C(O)CC(O)C(=O)O` (stereo not drawn) [Malic acid], in series [4] (setting [11]), the “growth of MDA-JAX AM001” value was “delay and inhibit MDA-JAX AM001 growth”.

`COc1cc2c(cc1OC)[C@@]13CCN4CC5=CCO[C@H]6CC(=O)N2[C@H]1[C@H]6[C@H]5C[C@H]43` [Brucine]: in series [4] (setting [10]), the “growth of MDA-JAX AM001” value was “delay and suppress the growth of MDA-JAX AM001”.

For the compound `CC[C@H]1OC(=O)[C@H](C)[C@@H](O[C@H]2C[C@@](C)(OC)[C@@H](O)[C@H](C)O2)[C@H](C)[C@@H](O[C@@H]2O[C@H](C)C[C@H](N(C)C)[C@H]2O)[C@](C)(O)C[C@@H](C)CN(C)[C@H](C)[C@@H](O)[C@]1(C)O` [azithromycin], in the series with Akkermansia [5], the bacterial populations depleted result is “depleted Akkermansia as well as some gram positive populations” and the “colonic mucus layer thinning during dietary restriction” value is reported as “prevented thinning of the colonic mucus layer”. Moreover, in the series with Akkermansia [2], the “colonic mucus layer thickness” value is reported as “effective in preserving colonic mucus layer thickness”; the “colonic tissue levels of IL-1b, CCL2, CCL7, IL-22, CXCL1 and CXCL10” value is given as “reduced”; the “ocular surface temperatures (hypothermia)” value is given as “less depressed at day 6”; the “outgrowth of Akkermansia” value is recorded as “very effective at preventing outgrowth of Akkermansia”.

As to `CN[C@H](CC(C)C)C(=O)N[C@H]1C(=O)N[C@@H](CC(N)=O)C(=O)N[C@H]2C(=O)N[C@H]3C(=O)N[C@H](C(=O)N[C@H](C(=O)O)c4cc(O)cc(O)c4-c4cc3ccc4O)[C@H](O)c3ccc(c(Cl)c3)Oc3cc2cc(c3O[C@@H]2O[C@H](CO)[C@@H](O)[C@H](O)[C@H]2O[C@H]2C[C@](C)(N)[C@H](O)[C@H](C)O2)Oc2ccc(cc2Cl)[C@H]1O` [vancomycin], in the series with Akkermansia [5], the bacterial populations depleted result is “depleted both gram-positive bacteria and some Bacteroidetes”; the “colonic mucus layer thinning during dietary restriction” value is on record as “Neither streptomycin nor vancomycin had a significant effect on mucus barrier loss”.

For the compound `CC(CO)(CO)C(=O)O` [Bis-hydroxy methyl propionic acid], the “growth of MDA-JAX AM001” value in series [4] (setting [11]) is “delay and inhibit MDA-JAX AM001 growth”.

As for `CCCC(=O)[O-].[Na+]` [butyrate, sodium butyrate], the “mucin glycan utilization” value in series [1] is on record as “negligible effects on A. muciniphila behavior”.

For `N[C@@H](Cc1ccc(N(CCCl)CCCl)cc1)C(=O)O` [melphalan], in series [6], the “changes in the intestinal microbiome” value is listed as “increase in the abundance of Akkermansia” and the “colonic mucus layer thickness” value is “significantly thinner”.

`O=C[C@H](O)[C@@H](O)[C@@H](O)[C@H](O)C(=O)O` [Galacturonic acid]: the “growth of MDA-JAX AM001” value in series [4] (setting [11]) was “delay and inhibit MDA-JAX AM001 growth”.

With `CCCCC(=O)O` [valerate], the “growth of MDA-JAX AM001” value in series [4] (setting [12]) is on record as “suppress and/or delay MDA-JAX AM001 growth”.

Take `NCCc1c[nH]c2ccc(O)cc12` [Serotonin]: the “growth of MDA-JAX AM001” value in series [4] (setting [10]) was “delay and suppress the growth of MDA-JAX AM001”.

Regarding `CC(C)CC(=O)O` [isovalerate], the “growth of MDA-JAX AM001” value in series [4] (setting [12]) is listed as “suppress and/or delay MDA-JAX AM001 growth”.

Consider `CC(=O)c1ccc(O)cc1O` [Resacetophenone], for which the “growth of MDA-JAX AM001” value in series [4] (setting [10]) was “delay and suppress the growth of MDA-JAX AM001”.

As to `CC(C(=O)O)C(=O)O` [Methylmalonic acid], the “growth of MDA-JAX AM001” value in series [4] (setting [11]) is “delay and inhibit MDA-JAX AM001 growth”.

With `O=C(O)Cc1c[nH]c2ccccc12` [3-Indole acetic acid], the “growth of MDA-JAX AM001” value in series [4] (setting [11]) was “delay and inhibit MDA-JAX AM001 growth”.

Consider `O=C(O)CCc1ccccc1` [Hydrocinnamic acid], for which the “growth of MDA-JAX AM001” value in series [4] (setting [11]) was “delay and inhibit MDA-JAX AM001 growth”.

With `[H]/N=C(/N)N[C@H]1[C@H](O)[C@@H](O)[C@H](O[C@@H]2O[C@@H](C)[C@](O)(C=O)[C@H]2O[C@@H]2O[C@@H](CO)[C@H](O)[C@@H](O)[C@@H]2NC)[C@@H](N/C(N)=N\[H])[C@@H]1O` [streptomycin], in the series with Akkermansia [5], the bacterial populations depleted entry is recorded as “depleted certain gram-positive bacteria” and the “colonic mucus layer thinning during dietary restriction” value is “Neither streptomycin nor vancomycin had a significant effect on mucus barrier loss”.

Regarding `CO/N=C(\C(=O)N[C@@H]1C(=O)N2C(C(=O)[O-])=C(C[N+]3(C)CCCC3)CS[C@H]12)c1csc(N)n1` [cefepime], in series [7], the “Acute GVHD Grade 0, number of patients” value came out at 57; the “Acute GVHD Grade 0, percentage of patients” value is “(46%)”; the “Acute GVHD Grade I, number of patients” value came out at 26; the “Acute GVHD Grade I, percentage of patients” value is recorded as “(21%)”. For the same compound, in series [7], the “Acute GVHD Grade II, number of patients” value is 34 and the “Acute GVHD Grade II, percentage of patients” value is recorded as “(27%)”. Further, in series [7] (iv), the “Acute GVHD Grade III-IV, number of patients” value is 7 and the “Acute GVHD Grade III-IV, percentage of patients” value is reported as “(6%)”.

The values are drawn from patent publication US20240216410A1, “METHODS AND COMPOSITIONS FOR TREATING CANCER THERAPY-INDUCED NEUTROPENIC FEVER AND/OR GVHD” (BOARD OF REGENTS, THE UNIVERSITY OF TEXAS SYSTEM, priority 2021, published 2024).
